Converted amounts (≈) assume the structure as drawn.
Tests used:
[1] = Kinetic aqueous solubility by nephelometry; format: physicochemical; conditions: phosphate-buffered saline, aqueous buffer, kinetic from dmso stock, PBS pH 7.4, 1% DMSO, 25°C, logS = decadic logarithm of molar solubility [M]
Procedure: Phosphate-buffered saline pH 7.4 was prepared according to the European Pharmacopeia 10.4 by dissolving 2.38 g sodium monohydrogen phosphate dodecahydrate, 0.19 g potassium dihydrogen phosphate and 8.0 g sodium chloride in demineralised water (to a total volume of 1000 mL). The pH was adjusted to a value of 7.4 with hydrochloric acid. The buffer was filtered through a 0.45 μm membrane filter (Chromafil® Xtra PES-45/25) before use.
The kinetic aqueous solubility was determined by nephelometry. The measurements were performed on the NEPHELOstar Plus, with accompanying software Omega 5.11 and MARS 3.20 (BMG LABTECH, Ortenberg, Germany). Generally, 2 dilution series of 1–2 weighed portions of each substance were measured. First, stock solutions of the compounds were prepared in DMSO. A series of dilutions in DMSO were prepared from one stock solution to obtain at least 3 concentrations below and 3 concentrations above the precipitation point in the measured series. The specific concentrations were usually measured as duplicates.
The 96-well plate (Corning UV transparent flat-bottom 96-well plate, Corning Incorporated, Kennenbunk, ME, USA) was inspected for contamination and scratches and measured without samples prior to the solubility measurement of the compounds. 198 μL of phosphate-buffered saline pH 7.4 was placed in a 96 well plate for each well to be measured. 2 μL of a DMSO solution was added and immediately mixed by moving the pipette plunger. This solution either contained no substance—and served as a blank for the measurement (3 wells)—or the respective DMSO dilution of the substance (2–4 wells). The concentration of the solvent DMSO in each measured solution was 1%. The concentration of the compound corresponds to a 1:100 dilution compared to the respective DMSO dilution. The well plate bottom was cleaned with a lint-free cloth and compressed air and inspected for impurities before measurement. After shaking at 500 rpm for 10 s (double orbital), the measurement was carried out in the nephelometer with the laser intensity set to 80% and beam focus of 2.5 mm at a temperature of 25°C.
The obtained measuring points, relative nephelometric units (RNU) per compound concentration, were used to model two straight lines: one straight line with constant low readings and slope → 0 characterises the concentration range where no precipitation has taken place yet; The other straight line has a steep slope and increase of the RNU per concentration and characterises the concentrations at which precipitation takes place in the respective sample vessels.
The evaluation was carried out by calculating the two straight lines and their point of intersection. Outliers and values in a saturation range for the kick-off curve (usually >800 kRNU) were not used to create the straight lines and are listed separately in the evaluation file. […] The x-value of the intersection of the two straight lines represents the kinetic solubility. The results of two dilution series are additionally indicated as range (in brackets). For measurements of 3 or more series, a mean value with standard deviation is provided. The logS value describes the decadic logarithm of the molar solubility: logS (molar solubility [M]).

[2] = test system: trypanothione synthetase of T. b. brucei (TbTryS); assay: TryS activity screening assay on recombinant TbTryS; format: biochemical; conditions: % activity at 30 μM compound, errors 2 SD
Procedure: TryS from different trypanosomatids was produced in recombinant form with an N-terminal His-tag. The constructs pET-15b TbTryS and pET-28c(+)LiTryS were used to express TryS of T. b. brucei 427 (MITat1.4, GenBank accession protein id CAC87573.1), and L. infantum JPCM5 (GenBank accession protein id CAM69145.1). E. coli strain BL21 (DE3) served as the expression host. For TbTryS, the cells were cultured in a medium based in Terrific Broth and induction with isopropyl 1-thio-β-D-galactopyranoside (IPTG), while for LiTryS, the cells were cultured in ZYM-5052 auto-induction medium. For a detailed description of the expression, see Benítez et al.. The purification was performed by immobilised metal affinity chromatography in a HisTrap Fast Flow column (GE Healthcare) followed by size exclusion chromatography. […] The fractions containing recombinant TryS with ≥95% purity were pooled and concentrated to >10 mg protein/mL using a 10 kDa cut-off Amicon filter (Millipore, Billerica, CA). Glycerol was added at a final concentration of 40% (v/v). The samples were stored at -80°C. Enzyme purity and activity were assessed by SDS-PAGE (12%) under reducing conditions and by the end-point TryS assay (see TryS activity screening assay), respectively. Protein concentration was determined using the bicinchoninic acid assay with bovine serum albumin as standard. The protocols yielded 25–30 mg TbTryS or LiTryS per litre of culture medium and homogeneous specific activity.
For all TryS, ATP was used at 150 μM because of a high background signal at higher concentrations and Spd fixed at 2 mM, in agreement with the intracellular levels calculated from data reported in the literature for trypanosomatids. GSH was adjusted to 0.05 and 0.25 mM for TbTryS and LiTryS, respectively, to avoid substrate inhibition or to approach physiological concentrations. […] Microtiter plate wells were loaded with 5 μL of the test compound, DMSO (reaction control) or a TryS specific inhibitor (inhibition control) and 40 μL of MM solution. The reactions were then started by adding 5 μL of TryS (2 and 3*10^−5 μmol*min^-1*mL^-1 for LiTryS and TbTryS, respectively) and stopped after 15 min with 200 μL BIOMOL® GREEN reagent (Enzo Life Sciences). The compounds used as inhibition control were added at concentrations that inhibited 50% TryS activity: 30 μM and 150 nM MOL2008 for TbTryS and LiTryS, respectively. Blanks were prepared for each condition by adding 5 μL of screening reaction buffer instead of the enzyme. The TryS activity is calculated as follows: TrySactivity%=A650nmCi-A650nmCiB/A650nmE-A650nmEB*100%
A650 nm Ci is the mean absorbance at 650 nm for the reaction test with compound I (Ci), A650 nm CiB is the mean absorbance at 650 nm for the blank control with compound I (CiB), A650 nm E is the mean absorbance at 650 nm for the reaction control with DMSO (E) and A650 nm EB is the mean absorbance at 650 nm for the blank control with DMSO (EB). The errors were expressed as 2 standard deviations (SD), SD estimated as σ^n−1.

Compound	solubility kinetic at 10 s [1]	TbTryS activity [% at 30 μM] [2]
CNCCNC(=O)CN1C(=O)Cc2c([nH]c3ccc(I)cc23)-c2ccc(Cl)cc21 [1f, 2-(3-Chloro-9-iodo-6-oxo-7,12-dihydrobenzo[2,3]azepino[4,5-b]indol-5(6H)-yl)-N-[2-(methylamino)ethyl]acetamide]	2.95e-05 M (≈ 15.4 µg/mL)	82.9 ± 6.5%
CNCCNC(=O)CN1C(=O)Cc2c([nH]c3ccc(Cl)cc23)-c2ccc(Cl)cc21 [1g, 2-(3,9-Dichloro-6-oxo-7,12-dihydrobenzo[2,3]azepino[4,5-b]indol-5(6H)-yl)-N-[2-(methylamino)ethyl]acetamide]	4.79e-05 M (≈ 20.6 µg/mL)	82.8 ± 5.9%
CNCCNC(=O)CN1C(=O)Cc2c([nH]c3ccc(C(F)(F)F)cc23)-c2ccc(Cl)cc21 [1h, 2-(3-Chloro-6-oxo-9-trifluoromethyl-7,12-dihydrobenzo[2,3]azepino[4,5-b]indol-5(6H)-yl)-N-[2-(methylamino)ethyl]acetamide]	4.27e-05 M (≈ 19.8 µg/mL)	87.8 ± 4.6%

From PMC10688702, “The indole motif is essential for the antitrypanosomal activity of N^5-substituted paullones” (PLOS ONE, 2023)
